Experimental data taken from PubChem BioAssay AID248 (DTP/NCI, 2004).
“And” between values parts separate entries of the source, which are not always exact repeats. Equal values may be shown once. Toxic doses and inconclusive results are not listed. No stated cut-off is given here; in the data, active means T/C of 150% or more; inactive means T/C below 125%.

Test system: L1210 leukemia ip in BDF1 mice, survival T/C
Assay: NCI In Vivo Anticancer Drug Screen. Data for tumor model L1210 Leukemia (intraperitoneal) in B6D2F1 (BDF1) mice
Conditions: endpoint: mean survival time, higher = longer survival
Method in brief: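 Tumor cells were implanted, animals were treated, and survival was followed. The result divides the treated measurement by the vehicle-control measurement.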

[1] = dose: 100.0 mg/kg/injection, schedule: Q01DX009 (ip), vehicle: Klucel (hydroxypropylcellulose) (HPC)
[2] = dose: 200.0 mg/kg/injection, schedule: Q01DX009 (ip), vehicle: Klucel (hydroxypropylcellulose) (HPC)
[3] = dose: 400.0 mg/kg/injection, schedule: Q01DX009 (ip), vehicle: Klucel (hydroxypropylcellulose) (HPC)
[4] = dose: 100.0 mg/kg/injection, schedule: Q04DX002 (ip), vehicle: Klucel (hydroxypropylcellulose) (HPC)
[5] = dose: 200.0 mg/kg/injection, schedule: Q04DX002 (ip), vehicle: Klucel (hydroxypropylcellulose) (HPC)
[6] = dose: 100.0 mg/kg/injection, schedule: Q04DX003 (ip), vehicle: Klucel (hydroxypropylcellulose) (HPC)
[7] = dose: 200.0 mg/kg/injection, schedule: Q04DX003 (ip), vehicle: Klucel (hydroxypropylcellulose) (HPC)
[8] = dose: 100.0 mg/kg/injection, schedule: Q01DX009 (ip), vehicle: saline with Tween-80
[9] = dose: 200.0 mg/kg/injection, schedule: Q01DX009 (ip), vehicle: saline with Tween-80
[10] = dose: 400.0 mg/kg/injection, schedule: Q04DX003 (ip), vehicle: Klucel (hydroxypropylcellulose) (HPC)
[11] = dose: 100.0 mg/kg/injection, schedule: Q04DX003 (ip), vehicle: saline
[12] = dose: 200.0 mg/kg/injection, schedule: Q04DX003 (ip), vehicle: saline
[13] = dose: 400.0 mg/kg/injection, schedule: Q04DX003 (ip), vehicle: saline
[14] = dose: 100.0 mg/kg/injection, schedule: Q01DX001 (ip), vehicle: carboxymethylcellulose (CMC)
[15] = dose: 200.0 mg/kg/injection, schedule: Q01DX001 (ip), vehicle: carboxymethylcellulose (CMC)
[16] = dose: 400.0 mg/kg/injection, schedule: Q01DX001 (ip), vehicle: carboxymethylcellulose (CMC)
[17] = dose: 100.0 mg/kg/injection, schedule: Q04DX003 (ip), vehicle: saline with Tween-80
[18] = dose: 200.0 mg/kg/injection, schedule: Q04DX003 (ip), vehicle: saline with Tween-80
[19] = dose: 400.0 mg/kg/injection, schedule: Q04DX003 (ip), vehicle: saline with Tween-80

Measured: T/C

ClCCC1OCCCO1
inactive: dose: 50.0 mg/kg/injection, schedule: Q01DX009 (ip), vehicle: saline + alcohol 96 % of control | dose: 100.0 mg/kg/injection, schedule: Q01DX009 (ip), vehicle: saline + alcohol 100 % of control | dose: 200.0 mg/kg/injection, schedule: Q01DX009 (ip), vehicle: saline + alcohol 96 % of control

NCC(=O)NC(Cc1c[nH]c2ccccc12)C(=O)O (stereo unspecified)
inactive: dose: 100.0 mg/kg/injection, schedule: Q01DX001 (ip), vehicle: acetone 97 % of control | dose: 200.0 mg/kg/injection, schedule: Q01DX001 (ip), vehicle: acetone 98 % of control | dose: 400.0 mg/kg/injection, schedule: Q01DX001 (ip), vehicle: acetone 92 % of control

Cc1ccc2c(c1)Nc1ccccc1C(=O)N2
inactive: [1] 98 % of control | [2] 93 % of control | [3] 91 % of control

NC(CCl)=NCC12CC3CC(CC(C3)C1)C2
inactive: [4] 98 % of control | [5] 104 % of control and 87 % of control

CS(=O)Cc1cccc2ccccc12 (stereo unspecified)
inactive: dose: 50.0 mg/kg/injection, schedule: Q04DX003 (ip), vehicle: Klucel (hydroxypropylcellulose) (HPC) 117 % of control | dose: 100.0 mg/kg/injection, schedule: Q01DX001 (ip), vehicle: Klucel (hydroxypropylcellulose) (HPC) 98 % of control | [6] 104 % of control | dose: 200.0 mg/kg/injection, schedule: Q01DX001 (ip), vehicle: Klucel (hydroxypropylcellulose) (HPC) 116 % of control | [7] 96 % of control

CN(C)c1ccc(/C=N/NC(=O)CNC(=O)Nc2nccs2)c(Cl)c1
inactive: dose: 50.0 mg/kg/injection, schedule: Q01DX009 (ip), vehicle: saline with Tween-80 100 % of control | [8] 89 % of control | [9] 89 % of control

COc1cc(N)c2c(c1N)C(=O)c1ccccc1C2=O
inactive: [1] 96 % of control | [6] 98 % of control | [2] 104 % of control | [7] 90 % of control | [3] 100 % of control | [10] 100 % of control

CC1C(=O)OC2CC[N+]3(CC(=O)c4ccc(Br)cc4)CC=C(COC(=O)C(C)(O)C1(C)O)C23 (stereo unspecified)
inactive: [11] 104 % of control | [12] 102 % of control | [13] 87 % of control

CS(=O)(=O)CS(C)(=O)=O
inactive: [14] 93 % of control | [1] 94 % of control | [11] 94 % of control | [15] 93 % of control | [2] 105 % of control | [12] 98 % of control | [16] 110 % of control | [3] 101 % of control | [13] 93 % of control

O=C(O)CCC(=O)Nc1ccc(Cl)cc1
inactive: [17] 97 % of control | [18] 94 % of control | [19] 86 % of control

Cc1c(C#N)sc2ccccc12
inactive: dose: 100.0 mg/kg/injection, schedule: Q01DX001 (ip), vehicle: saline 96 % of control | dose: 200.0 mg/kg/injection, schedule: Q01DX001 (ip), vehicle: saline 96 % of control | dose: 400.0 mg/kg/injection, schedule: Q01DX001 (ip), vehicle: saline 96 % of control

CCOc1ccc(NC(=S)NC2CCCCC2)cc1
inactive: [1] 106 % of control | [2] 95 % of control | [3] 96 % of control

O=CC(=O)Nc1ccc(C(=O)O)c(O)c1
inactive: [1] 95 % of control | [2] 95 % of control | [3] 98 % of control

CC(=O)Nc1c(F)c(F)c(N=Nc2ccccc2)c(F)c1F
inactive: [14] 100 % of control | [15] 102 % of control | [16] 100 % of control

CC(=O)n1cc(C2CC(=O)OC3=C2C(=O)CCC3)c2ccccc21 (stereo unspecified)
inactive: [8] 93 % of control | [17] 89 % of control | [9] 93 % of control | [18] 89 % of control | dose: 400.0 mg/kg/injection, schedule: Q01DX009 (ip), vehicle: saline with Tween-80 97 % of control | [19] 91 % of control

C(C[P+](c1ccccc1)(c1ccccc1)c1ccccc1)=C(c1ccccc1)c1ccccc1
inactive: dose: 10.0 mg/kg/injection, schedule: Q01DX001 (ip), vehicle: saline 103 % of control | dose: 40.0 mg/kg/injection, schedule: Q01DX001 (ip), vehicle: saline 95 % of control

CCCCOP(=O)(OCCCC)c1ccccc1OC
inactive: dose: 25.0 mg/kg/injection, schedule: Q04DX002 (ip), vehicle: saline with Tween-80 99 % of control | dose: 50.0 mg/kg/injection, schedule: Q04DX002 (ip), vehicle: saline with Tween-80 99 % of control | dose: 100.0 mg/kg/injection, schedule: Q04DX002 (ip), vehicle: saline with Tween-80 96 % of control and 89 % of control

NC(=O)OCc1ccccc1
inactive: dose: 50.0 mg/kg/injection, schedule: Q04DX002 (ip), vehicle: Klucel (hydroxypropylcellulose) (HPC) 98 % of control | [4] 98 % of control | [5] 94 % of control | dose: 400.0 mg/kg/injection, schedule: Q04DX002 (ip), vehicle: Klucel (hydroxypropylcellulose) (HPC) 94 % of control

CC1(C)CCN1Cc1ccccc1
inactive: dose: 12.0 mg/kg/injection, schedule: Q01DX001 (ip), vehicle: saline 98 % of control | dose: 12.0 mg/kg/injection, schedule: Q04DX003 (ip), vehicle: saline 95 % of control | dose: 12.5 mg/kg/injection, schedule: Q01DX009 (ip), vehicle: saline 95 % of control | dose: 25.0 mg/kg/injection, schedule: Q01DX001 (ip), vehicle: saline 100 % of control | dose: 25.0 mg/kg/injection, schedule: Q01DX009 (ip), vehicle: saline 101 % of control | dose: 25.0 mg/kg/injection, schedule: Q04DX003 (ip), vehicle: saline 101 % of control | dose: 50.0 mg/kg/injection, schedule: Q01DX001 (ip), vehicle: saline 96 % of control | dose: 50.0 mg/kg/injection, schedule: Q01DX009 (ip), vehicle: saline 123 % of control | dose: 50.0 mg/kg/injection, schedule: Q04DX003 (ip), vehicle: saline 96 % of control

Oc1ccc(C2C=CCC2)cc1C1C=CCC1 (stereo unspecified)
inactive: [1] 105 % of control | [6] 100 % of control | [2] 100 % of control | [7] 96 % of control | [3] 94 % of control | [10] 109 % of control

N=C1c2ccccc2-c2ccccc21
inactive: [17] 96 % of control | [18] 88 % of control

CCCCCCCCN1CCC(c2cccc(O)c2)C(C(=O)CC)C1 (stereo unspecified)
inactive: dose: 6.0 mg/kg/injection, schedule: Q01DX009 (ip), vehicle: Klucel (hydroxypropylcellulose) (HPC) 94 % of control and 102 % of control | dose: 12.0 mg/kg/injection, schedule: Q01DX009 (ip), vehicle: Klucel (hydroxypropylcellulose) (HPC) 94 % of control | dose: 50.0 mg/kg/injection, schedule: Q01DX009 (ip), vehicle: Klucel (hydroxypropylcellulose) (HPC) 87 % of control

O=c1[nH]c2ccccc2nc1C(Cl)Cl
inactive: [6] 115 % of control

Cc1cc(N(CCCOS(C)(=O)=O)CCCOS(C)(=O)=O)ccc1C=Nc1cccc(Cl)c1
inactive: [17] 97 % of control | [18] 98 % of control | [19] 92 % of control
